Counter-ions that a name gives are not always drawn.
How the values were obtained:
TNF-α [1] = test: LPS-induced TNF-α production in peripheral blood mononuclear cells (secondary screening); assay type: cell-based; details: 4.5 h, TNF-α production in PBMC, LPS 1 μg/ml, ELISA or L929 bioassay
Method: (§1) TNF-α production by LPS in peripheral blood mononuclear cells (PBMC) was measured according to the method described by Henry et al (J. Bioorg. Med. Chem. Lett., 8: 3335-3340, 1998). Briefly, blood was collected from healthy donors into Potassium EDTA vacutainer tubes (Vacutest Plast/Becton Dickinson). PBMC were isolated using gradient centrifugation in Ficoll-Paque solution (Pharmacia). Isolated PBMC were suspended in RPMI 1640 culture medium (Gibco BRL, Pasley, UK) containing 10% fetal bovine serum (FBS) (Hyclone, Utah, USA), 100 U/ml penicillin (Sigma Chemical Co. St Louis, Mo.) and 100 μg/ml streptomycin (Sigma Chemical Co. St Louis, Mo.). The cell concentration was adjusted to 1×10^6 cells/ml. The viability as determined by trypan blue dye exclusion was uniformly ≧98%. The cell suspension (100 μl) was added to the wells of a 96-well culture plate. Following cell plating, 79 μl of the culture medium and 1 μl of eight different concentrations of the test compounds (final concentration 0.03, 0.1, 0.3, 1, 3, 10, 30, 100 μM) dissolved in DMSO (dimethylsulfoxide, Sigma, Mo., USA) were added to the cells. The final concentration of DMSO was adjusted to 0.5%. The appropriate DMSO concentration was used as control. Rolipram (30 μM) was used as a standard compound. The plates were incubated for 30 min at 37° C. in an atmosphere of 5% CO2. Finally, 20 μl (10 μg/ml) per well of LPS, (Escherchia coli 0127:B8, Sigma Chemical Co., St. Louis, Mo.) was added, for a final concentration of 1 μg/ml. The plates were incubated at 37° C. for 4.5 h in an atmosphere of 5% CO2. To determine the cytotoxicity of the test compounds, the cell viability was assessed using MTS (3-(4,5-dimethylthiazol-2-yl)-5-(3-carboxymethoxyphenyl)-2-(4-sulfonyl)-2H-tetrazolium) reagent (Promega) after 4.5 h of incubation. Supernatants were harvested and assayed for TNF-α by ELISA as described by the manufacturer (R&D Systems, MN, BD Biosciences Pharmingen) or by cytotoxicity bioassay in L929 cells. The 50% inhibitory concentration (IC50) values were calculated by a nonlinear regression method using GraphPad software (Prism 3.03)

[2] = test system: peripheral blood mononuclear cells (PBMC); test: Cytotoxicity of test compounds in PBMC, cell viability by MTS reagent; assay type: cell-based, human
Method: as §1

TNF-α [3] = test: LPS-induced TNF-α release in BALB/c mice; assay type: in vivo; details: Mus musculus, LPS 1 mg/kg i.p. 1 h after dosing, plasma TNF-α 1.5 h after LPS, read-out: % inhibition (Mean ± SE*); for inhibition in vivo at 100 mg/kg: 100 mg/kg po; for inhibition in vivo at 30 mg/kg: 30 mg/kg po
Method: The protocol described by Fukuda T. et al (Eur. J. Pharmacol., 391: 317-320, 2000) was followed. BALB/c mice were divided into groups of five to ten each. The test compound, suspended in Tween 80-0.5% carboxy methylcellulose (CMC), with a few drops of Tween 80 as wetting agent if necessary, was administered orally (p.o.) to the mice. One hour later, LPS dissolved in sterile, pyrogen-free saline was administered i.p. at the dose of 1 mg/kg. The negative control group received saline as an i.p injection, while all other groups received LPS. Rolipram (30 mg/kg) was used as the standard drug. One and a half hours later, blood was collected in heparin. Plasma was separated by centrifugation at 13000 rpm (Heraeus Biofuge Pico Centrifuge) at room temperature, aliquoted and stored at −70° C. until analysis.
TNF-α levels in the blood samples were assayed using ELISA and % inhibition of TNF-α release compared to the control group was calculated.

TNF-α [4] = test: Whole blood cell culture assay: LPS-induced TNF-α release (primary screening); assay type: cell-based, human; details: Homo sapiens, Whole blood cell; test compound 1 μM; diluted whole blood of healthy donors; LPS 1 μg/ml, 4.5 h; vs DMSO control
Method: TNF-α production by lipopolysaccharide (LPS) in whole blood was measured according to the method described by Wilson et al (J. Immunol. Methods, 139: 233-240, 1991). Briefly, blood was collected from healthy donors into potassium EDTA vacutainer tubes (Vacutest Plast/Becton Dickinson) and diluted with RPMI 1640 culture medium (Gibco BRL, Pasley, UK) containing 100 U/ml penicillin and 100 μg/ml streptomycin, (100× solution, Sigma Chemical Co. St Louis, Mo.) with no added serum. The white blood cell count was adjusted to 1×10^6 cells/ml and 100 μl/well of the diluted blood was transferred into 96-well culture plates. Following cell plating, 79 μl of culture medium and 1 μl of the test compounds (final concentration 1 μM) dissolved in DMSO (dimethylsulfoxide, Sigma, Mo., USA) was added to the cells. The final concentration of DMSO was adjusted to 0.5%. 1 μl of vehicle (0.5% DMSO) was used as control. Rolipram (100 μM) was used as a standard compound. The plates were incubated for 30 min at 37° C. in an atmosphere of 5% CO2. Finally, 20 μl (10 μg/ml) per well of LPS (Escherchia coli 0127:B8, Sigma Chemical Co., St. Louis, Mo.) was added, for a final concentration of 1 μg/ml. Plates were incubated at 37° C. for 4.5 h in an atmosphere of 5% CO2. Supernatants were harvested and assayed for TNF-α by ELISA as described by the manufacturer (R&D Systems, MN) or by cytotoxicity bioassay in L929 cells. Percent inhibition of TNF-α release in comparison to the control was calculated.

SMILES	IC50 (TNF-α [1]) [nM]	melting point	% toxicity (10 μM), 5 h [2] [%]	inhibition in vivo at 100 mg/kg (TNF-α [3]) [%]	inhibition in vivo at 10 mg/kg (TNF-α [3]; 10 mg/kg po) [%]	inhibition at 1 µM (TNF-α [4]) [%]	inhibition in vivo at 30 mg/kg (TNF-α [3]) [%]
COC(=O)c1cc(C)c2c(c1)S(=O)(=O)Cc1cc(N3CCCNCC3)cc(Cl)c1O2.Cl [Example 29, 4-Chloro-2-[1,4]diazepan-1yl-6-methyl-10,10-dioxo-10,11-dihydro-5-oxa-10lambda*6*-thia-dibenzo[a,d]cycloheptene-8-carboxylic acid methyl ester hydrochloride]	510	270 °C (dec.)	23	79.1 ± 0.91		76	
Cc1cc(C(=O)OC(C)C)cc2c1Oc1c(Cl)cc(NC=O)cc1CS2(=O)=O [Example 11, 4-Chloro-2-formylamino-6-methyl-10,10-dioxo-10,11-dihydro-5-oxa-10lambda*6*-thia-dibenzo[a,d]cycloheptene-8-carboxylic acid isopropyl ester]	21000	212 to 215 °C	25	77.9 ± 9.85		51	
Cc1cc(C(=O)O)cc2c1Oc1c(Cl)cc(N3CCNCC3)cc1CS2(=O)=O [Example 18, 4-Chloro-6-methyl-10,10-dioxo-2-piperazin-1-yl-10,11-dihydro-5-oxa-10lambda*6*-thia-dibenzo[a,d]cycloheptene-8-carboxylic acid]				22.7 ± 8.47			
COC(=O)c1cc(C)c2c(c1)S(=O)(=O)Cc1cc(N3CCN(C=O)CC3)cc(Cl)c1O2 [Example 20, 4-Chloro-2-(4-formyl-piperazin-1-yl)-6-methyl-10,10-dioxo-10,11-dihydro-5-oxa-10lambda*6*-thia-dibenzo[a,d]cycloheptene-8-carboxylic acid methyl ester]	1100		24				27.9 ± 17.5
COC(=O)c1cc(C)c2c(c1)S(=O)(=O)Cc1cc(N3CCN(C(C)=O)CC3)cc(Cl)c1O2 [Example 21, 2-(4-Acetyl-piperazin-1-yl)-4-chloro-6-methyl-10,10-dioxo-10,11-dihydro-5-oxa-10lambda*6*-thia-dibenzo[a,d]cycloheptene-8-carboxylic acid methyl ester]	4000		44				54.6 ± 11.7
Cc1cc(C(=O)O)cc2c1Oc1c(Cl)cc(NC=O)cc1CS2(=O)=O [Example 7, 4-Chloro-2-formylamino-6-methyl-10,10-dioxo-10,11-dihydro-5-oxa-10lambda*6*-thia-dibenzo[a,d]cycloheptene-8-carboxylic acid]				55.8 ± 9.24			
Cc1cc(C(=O)O)cc2c1Oc1c(Cl)cc(N)cc1CS2(=O)=O [Example 3, 2-Amino-4-chloro-6-methyl-10,10-dioxo-10,11-dihydro-5-oxa-10lambda*6*-thia-dibenzo[a,d]cycloheptene-8-carboxylic acid sodium salt]				40.7 ± 12.7			

Second part, led by results:

IC50 (TNF-α [1]) [nM]	melting point	SMILES	% toxicity (10 μM), 5 h [2] [%]	inhibition in vivo at 100 mg/kg (TNF-α [3]) [%]	inhibition in vivo at 10 mg/kg (TNF-α [3]; 10 mg/kg po) [%]	inhibition at 1 µM (TNF-α [4]) [%]	inhibition in vivo at 30 mg/kg (TNF-α [3]) [%]
880		COC(=O)c1cc(C)c2c(c1)S(=O)(=O)Cc1cc(N3CCN(CCO)CC3)cc(Cl)c1O2 [Example 22, 4-Chloro-2-[4-(2-hydroxy-ethyl)-piperazin-1-yl]-6-methyl-10,10-dioxo-10,11-dihydro-5-oxa-10lambda*6*-thia-dibenzo[a,d]cycloheptene-8-carboxylic acid methyl ester]	16	57.7 ± 5.66			
8600	258 to 260 °C	COC(=O)c1cc(C)c2c(c1)S(=O)(=O)Cc1cc(N)cc(Cl)c1O2 [Example 1, 2-Amino-4-chloro-6-methyl-10,10-dioxo-10,11-dihydro-5-oxa-10lambda*6*-thia-dibenzo[a,d]cycloheptene-8-carboxylic acid methyl ester]	12		64.9 ± 3.97		
3870 ± 1420	201 to 204 °C	COC(=O)c1cc(C)c2c(c1)S(=O)(=O)Cc1cc(N3CCN(C(=O)c4ccccc4C)CC3)cc(Cl)c1O2 [Example 24, 4-Chloro-6-methyl-2-[4-(2-methyl-benzoyl)-piperazin-1-yl]-10,10-dioxo-10,11-dihydro-5-oxa-10lambda*6*-thia-dibenzo[a,d]cycloheptene-8-carboxylic acid methyl ester]	03			74	17.6 ± 8.72
10500	262 to 264 °C	Cc1cc(C(=O)OC(C)C)cc2c1Oc1c(Cl)cc(N3CCNCC3)cc1CS2(=O)=O.Cl [Example 28, 4-Chloro-6-methyl-10,10-dioxo-2-piperazin-1-yl-10,11-dihydro-5-oxa-10lambda*6*-thia-dibenzo[a,d]cycloheptene-8-carboxylic acid isopropyl ester hydrochloride]	15			70	
160	235 to 237 °C	COC(=O)c1cc(C)c2c(c1)S(=O)(=O)Cc1ccc(N3CCNCC3)c(Cl)c1O2.Cl [Example 32, 4-Chloro-6-methyl-10,10-dioxo-3-piperazin-1-yl-10,11-dihydro-5-oxa-10lambda*6*-thia-dibenzo[a,d]cycloheptene-8-carboxylic acid methyl ester hydrochloride]	27			96	
600		COC(=O)c1cc(C)c2c(c1)S(=O)(=O)Cc1cc(N3CCN(S(C)(=O)=O)CC3)cc(Cl)c1O2 [Example 25, 4-Chloro-2-(4-methanesulfonyl-piperazin-1-yl)-6-methyl-10,10-dioxo-10,11-dihydro-5-oxa-10lambda*6*-thia-dibenzo[a,d]cycloheptene-8-carboxylic acid methyl ester]	18				33.6 ± 16.5
2600	258 to 262 °C (dec.)	COC(=O)c1cc(C)c2c(c1)S(=O)(=O)Cc1cc(NC=O)cc(Cl)c1O2 [Example 9, 4-Chloro-2-formylamino-6-methyl-10,10-dioxo-10,11-dihydro-5-oxa-10lambda*6*-thia-dibenzo[a,d]cycloheptene-8-carboxylic acid methyl ester]	09			31	

Reference: patent US7964631B2, “Fused tricyclic compounds as inhibitors of tumor necrosis factor-α” (Piramal Life Sciences Limited, priority 2004, dated 2011)
